Assay results from ChEMBL document CHEMBL3875228, “Rational Design of a Boron-Modified Triphenylethylene (GLL398) as an Oral Selective Estrogen Receptor Downregulator” (ACS Med Chem Lett, 2017).

Assays:
Estrogen receptor [1] = target: T1, Estrogen receptor (Homo sapiens, UniProt P03372); experiment: biochemical
T1 sequence (P03372 whole entry): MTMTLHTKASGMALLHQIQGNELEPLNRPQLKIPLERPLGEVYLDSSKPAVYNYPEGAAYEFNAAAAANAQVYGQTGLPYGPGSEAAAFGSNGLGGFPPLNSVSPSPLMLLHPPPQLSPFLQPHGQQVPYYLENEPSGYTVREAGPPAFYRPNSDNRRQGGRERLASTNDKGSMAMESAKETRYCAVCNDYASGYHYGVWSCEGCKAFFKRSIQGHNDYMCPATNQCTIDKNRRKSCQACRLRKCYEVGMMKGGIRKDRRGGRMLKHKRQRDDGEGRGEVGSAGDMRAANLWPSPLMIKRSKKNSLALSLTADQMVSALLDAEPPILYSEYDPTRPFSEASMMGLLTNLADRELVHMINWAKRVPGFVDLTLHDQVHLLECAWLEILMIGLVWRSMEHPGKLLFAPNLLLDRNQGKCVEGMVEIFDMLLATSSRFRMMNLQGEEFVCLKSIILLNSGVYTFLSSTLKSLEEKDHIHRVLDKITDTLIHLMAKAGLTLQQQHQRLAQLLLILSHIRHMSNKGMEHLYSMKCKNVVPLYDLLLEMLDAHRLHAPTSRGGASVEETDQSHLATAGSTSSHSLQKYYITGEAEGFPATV
Description: Displacement of fluormone-labeled ES2 from recombinant full length human ERalpha ligand binding domain expressed in insect cells after 2 hrs by TR-FRET assay

[2] = AUC in Sprague-Dawley rat at 10 mg/kg, po administered via gavage measured at 1 to 24 hrs post administration by HPLC-MS/MS analysis; format: ADME, organism-based; settings: in vivo
Estrogen receptor [3] = target: T1, Estrogen receptor; experiment: Downregulation of ERalpha in human MCF7 cells after 4 hrs by Western blot analysis; format: cell-based
[4] = Cmax in Sprague-Dawley rat at 10 mg/kg, po administered via gavage measured at 1 to 24 hrs post administration by HPLC-MS/MS analysis; format: ADME, organism-based; design: dose 10 mg/kg, route oral; settings: in vivo
cells [5] = settings: Homo sapiens, MCF7, 120 h
Description: Cytotoxicity against human MCF7 cells assessed as reduction in cell viability after 5 days by Coulter counting method

[6] = Half life in Sprague-Dawley rat at 10 mg/kg, po administered via gavage measured at 1 to 24 hrs post administration by HPLC-MS/MS analysis; format: ADME, organism-based; settings: in vivo
[7] = Tmax in Sprague-Dawley rat at 10 mg/kg, po administered via gavage measured at 1 to 24 hrs post administration by HPLC-MS/MS analysis; format: ADME, organism-based; settings: in vivo
cells [8] = settings: Homo sapiens, MCF7, 120 h; remark: listed apart in the source
Description: Cytotoxicity against tamoxifen-resistant human MCF7 cells assessed as reduction in cell viability after 5 days by Coulter counting method

[9] = Cmax in Sprague-Dawley rat assessed as GW7604 at 10 mg/kg, po administered via gavage measured at 1 to 24 hrs post administration by HPLC-MS/MS analysis; format: ADME, organism-based; design: dose 10 mg/kg, route oral; settings: in vivo
[10] = AUC in Sprague-Dawley rat assessed as GW7604 at 10 mg/kg, po administered via gavage measured at 1 to 24 hrs post administration by HPLC-MS/MS analysis; format: ADME, organism-based; settings: in vivo
[11] = Half life in Sprague-Dawley rat assessed as GW7604 at 10 mg/kg, po administered via gavage measured at 1 to 24 hrs post administration by HPLC-MS/MS analysis; format: ADME, organism-based; settings: in vivo

With CCC(=C(c1ccc(/C=C/C(=O)O)cc1)c1ccc(B(O)O)cc1)c1ccccc1 as the molecule, how does the IC50 (Estrogen receptor [1]) read?
Its IC50 is 0.00114 µM.

What about the AUC [2] of the same molecule?
The AUC was 36900 ng·h/mL.

And the IC50 (Estrogen receptor [3])?
The IC50 was 0.21 µM.

What about the Cmax [4] of the same molecule?
The Cmax was 3510 ng/mL.

What about the IC50 (cells [5]) of the same molecule?
Its IC50 is 1.8 µM.

What about the half-life [6] of the same molecule?
The half-life was 3.9 h.

And the Tmax [7]?
Its Tmax is 1 h.

What about the IC50 (cells [8]) of the same molecule?
The IC50 was 1.2 µM.

For CC/C(=C(\c1ccc(O)cc1)c1ccc(OCCN(C)C)cc1)c1ccccc1 [AFIMOXIFENE], which IC50 (cells [5]) is on record?
Its IC50 is 0.0034 µM.

What about the IC50 (cells [8]) of the same molecule?
The IC50 was 20 µM.

Which Cmax [9] does the source give for CC/C(=C(\c1ccccc1)c1ccc(/C=C/C(=O)O)cc1)c1ccc(O)cc1 here?
Its Cmax is 560 ng/mL.

What about the AUC [10] of the same molecule?
The AUC was 8670 ng·h/mL.

What about the t1/2 [11] of the same molecule?
Its t1/2 is 4.5 h.

And the AUC [2]?
Its AUC is 3350 ng·h/mL.

What about the Cmax [4] of the same molecule?
The Cmax was 270 ng/mL.

What about the IC50 (cells [5]) of the same molecule?
The IC50 was 1.9 µM.

And the half-life [6]?
Its half-life is 7 h.

What about the Tmax [7] of the same molecule?
Its Tmax is 3 h.

What about the IC50 (cells [8]) of the same molecule?
Its IC50 is 1 µM.
